Experiments:
human OX1 receptors [1] = target: T1, human OX1 receptors (Homo sapiens, UniProt O43613); assay: Intracellular calcium mobilization (FLIPR), antagonist mode vs EC70 orexin-A; conditions: HEK293 cells, mean ± s.e.m. (n)
T1 sequence (O43613 1-425): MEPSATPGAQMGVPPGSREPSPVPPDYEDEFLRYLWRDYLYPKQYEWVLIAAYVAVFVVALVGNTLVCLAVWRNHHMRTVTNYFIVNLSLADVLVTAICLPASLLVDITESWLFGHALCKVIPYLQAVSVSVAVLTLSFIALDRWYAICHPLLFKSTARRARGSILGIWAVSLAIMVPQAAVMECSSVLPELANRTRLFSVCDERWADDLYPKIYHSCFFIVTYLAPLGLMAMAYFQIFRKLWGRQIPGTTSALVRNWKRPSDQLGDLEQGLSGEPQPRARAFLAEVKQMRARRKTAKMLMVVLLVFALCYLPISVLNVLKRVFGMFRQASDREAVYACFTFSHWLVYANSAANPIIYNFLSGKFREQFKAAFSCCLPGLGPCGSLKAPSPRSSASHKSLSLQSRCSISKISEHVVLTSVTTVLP
Method: (§1) Recombinant human OX1 and OX2 receptors were stably expressed in HEK293 cells, or rat recombinant OX1 and OX2 receptors stably expressed in AV12 cells, and assessed for intracellular calcium mobilization using Fluo-3 dye (Molecular Probes, Eugene, OR). […] It was further diluted to 8 mM in 2.5 mM probenecid loading buffer which was made as described below. The human cell line was grown in DMEM/F-12 (3:1) supplemented with 10% FBS (heat-inactivated), 20 mM HEPES, 1% Penn/Strep, and 4 μg/ml Blasticidin (35,000 cells/well). The rat cell line was grown in DMEM supplemented with 10% FBS (heat-inactivated), 20 mM HEPES, 1% Penn/Strep, 4 μg/ml Blasticidin, and 1 mM sodium pyruvate (60,000 cells/well). […] Finally, plates were read on a fluorescence imaging plate reader (FLIPR; Molecular Devices, LLC, Sunnyvale, CA) instrument with a 50 μl addition of antagonist; cells were placed in the dark at room temperature for an additional 15 min; then read on FLIPR instrument with a 100 μl addition of an EC70 concentration of orexin A (for a total volume of 200 μl). […] Kb-values were calculated based on 10-point dilution curves using ActivityBase templates (ID Business Solutions, Ltd., Guildford, Surrey, UK). […]

human OX1 receptors [2] = target: T1, human OX1 receptors; assay: Radioligand binding, [125I]-Orexin A displacement, HEK293 membranes; design: expressed in transfected cells; membranes; conditions: 90 min, mean ± s.e.m. (n)
Method: Briefly, the membranes were isolated by homogenizing cell pellet in 30 ml (w/v) 50 mM Tris buffer (pH 7.4) containing Roche Complete EDTA free protease tablets. […] All binding studies were conducted at a final volume of 200 μl. […] Then 300 μl of this solution was placed in column B on a Nunc polypropylene 96-well plate (Thermo Fisher Scientific, Inc., Rochester, NY). Serial dilutions were then made using a Biomek 2000 (Beckman Coulter, Inc., Fullerton, CA) from a starting concentration of 40 μM. […] All binding was terminated by rapid filtration using a TOMTEC 96-well cell harvester (Hamden, CT) through GF/A filters that had been presoaked with 0.3% polyethyleneimine. The filters were washed with 5.0 ml ice-cold 50 mM Tris buffer (pH 7.4) and air-dried overnight. […] Protein concentrations were measured using Coomassie Protein Plus Assay Reagent (Pierce, Rockford, IL) and serum albumin standards.

C57Bl/6 mice = assay: DRL 36-s schedule of reinforcement in wild-type mice; type: in vivo, mouse; conditions: for Lever Presses Mean / Reinforcers Mean: WT mice DRL-36-s, raw data
Excerpt: The levers in these chambers were mounted on one wall with an adjacent food magazine next to the lever in the middle of the wall. A reinforced response caused a clicker apparatus to activate and the pellet feeder to deposit one 45-mg sucrose pellet (BioServ, Frenchtown, NJ) into the food magazine. The house light, which was mounted on the ceiling, was turned on when the session began, remained on throughout the entire session, and was turned off at the end of the session. Each experimental chamber was enclosed in a melamine sound-attenuating cubicle and equipped with a white noise generator to provide masking noise.
Each mouse was initially trained under a variable time 60-s operant schedule for 5 days, followed by fixed ratio-1 ratio schedule for 5 days. After the mice had acquired lever-pressing behavior, they were trained during daily DRL 6-s sessions for ~1 week, then mice progressed through weekly ascending DRL requirements (12, 18, 24, 30 s) before moving to DRL 36-s sessions. […] Experimental sessions lasted for 45 min and were conducted 5 days/week during light hours.
Drugs were administered to the animals once or twice weekly with at least 1 week between subsequent drugs to minimize possible carryover effects. Drug treatments were administered on Tuesdays and Fridays. No treatments were administered on other test days. Wednesdays were control days. “Control” behavior was calculated as the pooled mean lever presses or reinforcers received during Wednesday sessions across all Wednesdays for the duration of each study. Performance was normalized to percent of control by dividing total responses (or reinforcers) for each drug or vehicle treatment by the mean number of responses (reinforcers) in the respective pooled control condition, multiplied by 100.
The data analyses were conducted on the raw response and reinforcement data. All behavioral data are expressed as the mean ± s.e.m. normalized to the control condition.

rat OX2 receptors = target: T2, rat OX2 receptors (Rattus norvegicus, UniProt P56719); assay: cell-based
T2 sequence (P56719 1-460): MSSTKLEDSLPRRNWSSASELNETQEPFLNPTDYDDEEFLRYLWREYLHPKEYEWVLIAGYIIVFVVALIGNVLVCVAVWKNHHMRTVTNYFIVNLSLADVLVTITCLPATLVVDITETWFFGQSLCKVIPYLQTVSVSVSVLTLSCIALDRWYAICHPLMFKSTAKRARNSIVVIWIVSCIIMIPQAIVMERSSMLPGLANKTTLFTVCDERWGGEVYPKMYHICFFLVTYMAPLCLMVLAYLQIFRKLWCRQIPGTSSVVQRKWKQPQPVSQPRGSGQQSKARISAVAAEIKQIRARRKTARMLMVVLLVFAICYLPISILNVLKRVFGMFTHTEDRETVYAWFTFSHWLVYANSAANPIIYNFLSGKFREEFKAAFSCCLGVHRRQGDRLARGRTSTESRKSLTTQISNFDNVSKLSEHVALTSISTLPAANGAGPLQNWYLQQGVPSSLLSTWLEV

rat OX1 receptors = target: T3, rat OX1 receptors (Rattus norvegicus, UniProt P56718); assay: cell-based
T3 sequence (P56718 1-416): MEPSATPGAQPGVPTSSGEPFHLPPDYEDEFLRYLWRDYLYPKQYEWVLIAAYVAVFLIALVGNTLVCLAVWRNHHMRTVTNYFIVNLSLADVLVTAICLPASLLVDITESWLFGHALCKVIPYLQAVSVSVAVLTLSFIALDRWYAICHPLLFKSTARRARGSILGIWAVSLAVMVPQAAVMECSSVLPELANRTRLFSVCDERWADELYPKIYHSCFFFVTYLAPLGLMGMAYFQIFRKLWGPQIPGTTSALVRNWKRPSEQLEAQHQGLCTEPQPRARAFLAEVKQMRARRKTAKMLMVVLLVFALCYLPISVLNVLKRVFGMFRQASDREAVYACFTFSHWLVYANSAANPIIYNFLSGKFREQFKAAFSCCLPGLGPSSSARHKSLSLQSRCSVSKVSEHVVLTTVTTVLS
Method: as §1

[3] = dose 100 mg/kg, listed as almorexant inactive
[4] = C57Bl/6 mice DRL-36-s, significant at 100 mg/kg (Figure 5B legend)

Row | Compound | Functional antagonist activity, Kb hOX1 (human OX1 receptors [1]) | Receptor binding affinity, Ki OX1 (human OX1 receptors [2]) | Effect on DRL behavior, in words (C57Bl/6 mice; C57Bl/6 mice DRL-36-s, 100 mg/kg) | Lever Presses Mean (C57Bl/6 mice; [3]) | Reinforcers Mean (C57Bl/6 mice; [3]) | Kb (rat OX2 receptors) [nM] | Lever presses emitted (C57Bl/6 mice; [4]) | Reinforcers received (C57Bl/6 mice; [4]) | Lever Presses Mean (C57Bl/6 mice; dose 10 mg/kg) | Reinforcers Mean (C57Bl/6 mice; dose 10 mg/kg) | Lever Presses Mean (C57Bl/6 mice; dose 20 mg/kg) | Reinforcers Mean (C57Bl/6 mice; dose 20 mg/kg) | Lever Presses Mean (C57Bl/6 mice; dose 40 mg/kg) | Reinforcers Mean (C57Bl/6 mice; dose 40 mg/kg) | Lever Presses Mean (C57Bl/6 mice; dose 100 mg/kg) | Reinforcers Mean (C57Bl/6 mice; dose 100 mg/kg) | Kb (rat OX1 receptors) [nM]
1 | CNC(=O)[C@@H](c1ccccc1)N1CCc2cc(OC)c(OC)cc2[C@@H]1CCc1ccc(C(F)(F)F)cc1 [Almorexant (R)] | inactive | inactive | no significant effects on behavior | 233.00 | 11.00 |  |  |  |  |  |  |  |  |  |  |  | 
2 | CNC(=O)[C@@H](c1ccccc1)N1CCc2cc(OC)c(OC)cc2[C@@H]1CCc1ccc(C(F)(F)F)cc1 [Almorexant (S)] |  |  |  |  |  | 4.4 ± 1.6 | 47 % of control | > 400 % of control | 174.25 | 14.00 | 161.13 | 15.50 | 172.38 | 20.25 | 114.88 | 27.13 | 3.2 ± 0.7
